Patent US5585504A, “Process of making cox-2 inhibitors having a lactone bridge” (Merck & Co., Inc., priority 1994, dated 1996)
Like-named read-outs stand apart in the source and are kept apart here.

Test system: carrageenan-induced paw edema
Test: Rat paw edema assay (carrageenan)
Format: in vivo, Male Sprague-Dawley rats
Details: po, 1 hr before carrageenan, paw volume 3 hr after
Protocol: Male Sprague-Dawley rats (150-200g) were fasted overnight and were given po either vehicle (5% tween 80 or 1% methocel) or a test compound at 9-10 am. One hr later, a line was drawn using a permanent marker at the level above the ankle in one hind paw to define the area of the paw to be monitored. The paw volume (VOh) was measured using a plethysmometer (Ugo-Basile,Italy) based on the principle of water displacement. The animals were then injected subplantarly with 50 ul of a 1% carrageenan solution in saline (FMC Corp, Maine) into the paw using an insulin syringe with a 25-gauge needle (i.e. 500 ug carrageenan per paw). Three hr later, the paw volume (V3h) was measured and the increases in paw volume (V3h -VOh) were calculated. The animals were euthanized by CO2 aphyxiation and the absence or presence of stomach lesions scored. Stomach scores were expressed as the sum of total lesions in mm. Paw edema data were compared with the vehicle-control group and percent inhibition calculated taking the values in the control group as 100%. […] All treatment groups were coded to eliminate observer bias.

**Q.** For `CS(=O)(=O)c1ccc(C2=C(c3ccc(F)c(Br)c3)C(=O)OC2)cc1`, which ED30 (Rattus norvegicus, 3 h, read-out: ED30 (Table I, column head not given)) is on record?
**A.** Its ED30 is ~1 mg/kg.

**Q.** For `CS(=O)(=O)c1ccc(C2=C(c3ccc(Cl)c(Cl)c3)C(=O)OC2)cc1`, which ED30 (Table I, column head not given) is on record?
**A.** Its ED30 (Table I, column head not given) is 0.23 mg/kg.

**Q.** `COc1ccc2c(c1)c(CC(=O)O)c(C)n2C(=O)c1ccc(Cl)cc1` [Indomethacin, reference compound] was tested. Which ED30 (read-out: ED30) did it give?
**A.** The ED30 was 1 mg/kg.
